Data reported in paper PMC4513130, “Neuronal Calcium Sensor-1 Binds the D2 Dopamine Receptor and G-protein-coupled Receptor Kinase 1 (GRK1) Peptides Using Different Modes of Interactions” (The Journal of Biological Chemistry, 2015).

Tests used:
[1] = test system: NCS-1; test: Crystal structure of peptide complex with Ca2+/NCS-1 (copies bound, buried surface area); assay type: binding, Rattus norvegicus
Description: Purified proteins were equilibrated against 20 mM Tris-HCl, pH 7.5, and concentrated to 1 mM final protein concentration before initiating crystallization trials. For crystallization of the peptide complexes, a 2-fold excess of peptide was added to the protein solution. Crystals were grown at 20 °C using the sitting drop vapor diffusion method. NCS-1 was crystallized in 0.1 M sodium cacodylate, pH 6.5, 0.2 M sodium acetate, and 30% (w/v) PEG 8000, similar to the conditions previously reported ([27]). […]
For the NCS-1·D2R complex, molecular replacement used the structure of human NCS-1 (human and rat NCS-1 have 99% sequence identity; PDB accession 1G8I) and PHASER ([31]), as implemented from within PHENIX ([32]). […] At this stage, electron density for the helix for chain B was readily apparent, and a model for the helix was built in manually using COOT ([33]). […]
The structure of the NCS-1·GRK1 complex was determined using the coordinates from the A chain of the NCS-1 apoprotein and the program MOLREP ([38]), as implemented from within the CCP4 program suite ([39]). […] Electron density for a single GRK1 peptide per NCS-1 monomer, in a helical conformation, was readily detectable. […]
Data for NCS-1ΔCT were processed using MOSFLM ([37]) and SCALA ([30]). […] The four molecular copies of NCS-1ΔCT in this crystal form were readily identified in this way. […]

[2] = test system: recoverin; conditions: NMR structure, PDB 2I94; orientation opposite to that in NCS-1·GRK1 complex; cited from earlier work
Source text: The C-terminal α-helix in both complexes form one edge of the hydrophobic groove. […] Somewhat surprising are the differences observed between the NCS-1 ...

[3] = Solubility and aggregation
[4] = Size exclusion chromatography-multiangle laser light scattering (MALLS); assay type: physicochemical; conditions: SEC-MALLS, Superdex 75; 20 mM Tris-HCl, 150 mM NaCl, 1 mM CaCl2, pH 7.5; 1.5 mg/ml injected
Description: Measurements were performed on a Dionex BioLC HPLC connected to an 18-angle light scattering detector and a differential refractometer (DAWN HELEOS-II and OPTILab rEX, Wyatt). A Superdex 75 10/300 GL column (GE Healthcare) was used in 20 mM Tris-HCl, 150 mM NaCl, 1 mM CaCl2, pH 7.5, at a flow rate of 0.75 ml/min. Sample volumes of 1 ml were injected at a concentration of 1.5 mg/ml. Samples eluting from the column passed through an in-line DAWN HELEOS-II laser photometer (λ = 658 nm) and an OPTILab rEX refractometer with a QELS dynamic light scattering attachment. Light scattering intensity and eluant refractive index (concentration) were analyzed using ASTRA version 5.3.4.13 software to give a weight-averaged molecular mass. To determine the detector delay volumes and normalization coefficients for the MALLS detector, a BSA sample (Sigma A-8531) was used as reference.

[5] = test system: NCS-1ΔCT; test: NMR (1H-15N HSQC) of Ca2+/NCS-1ΔCT, titration with D2R peptide; assay type: binding, rat; conditions: 15N Ca2+/NCS-1ΔCT alone
Description: NCS-1 was prepared in 50 mM Tris-HCl buffer, pH 6.8, in the presence of 5 mM MgCl2 and 5 mM CaCl2. NMR spectra were recorded at 27 °C on Bruker DRX 800 and 600 MHz Avance II spectrometers equipped with CryoProbes. Data were processed using the Bruker software TopSpin and analyzed using CCPN software ([26]). Sequence-specific backbones were obtained using the HNCA, HN(CO)CA, HNCO, HN(CA)CO, CBCA(CO)NH, CBCANH, HBHA(CO)NH, and HCCH-TOCSY experiments.
FIGURE 9. NMR spectra and structure of rat Ca^2+/NCS-1ΔCT (PDB code 4YRU). A,^1H-^15N heteronuclear single quantum coherence spectra of ^15N Ca^2+/NCS-1ΔCT; B, in the presence of 5-fold excess of D2R peptide in 50 mM Tris-HCl buffer, 50 mM NaCl, 5 mM CaCl2, pH 6.5, 298 K. C, structure of the dimer of NCS-1ΔCT. Left, one monomer is shown as a backbone schematic and the other as a surface representation. Right, view of the hydrophobic binding site. Residues from helix 3 and the EF1/EF2 loop (Phe-48–Phe-58) are colored red, and residues in the EF3/EF4 loop region (Val-136–Pro-139) are colored brown. Conserved hydrophobic surface-exposed residues in the N-lobe site, which are involved with binding the D2R peptide, are highlighted in yellow (similar to those highlighted in Fig. 4B). D2R peptide in the N-site is shown with magenta ribbon for comparison. Ca^2+ ions are shown as brown spheres.

In the case of “MDFGSLETVVANSAFIAARGSFDGS [GRK1 peptide]”, the “buried surface area of peptide” value ([1]; GRK1 peptide in hydrophobic groove, PDB 5AFP) is listed as 921 Å^2, the “copies of peptide bound per NCS-1 molecule” value ([1]; crystal structure, Ca2+/NCS-1, 2-fold excess of peptide) is listed as “one” and the “binding site on recoverin” value [2] is listed as “binding only in the N-lobe site”. For the same substance, the “aggregation” value [3] was “propensity to aggregate”.

With “NCS-1ΔCT: C-terminal truncated mutant of NCS-1, residues Ser-178–Val-190 deleted” the “solution state” value [4] was “polydisperse” and the “NMR spectra of NCS-1ΔCT” value [5] was “significant concentration-dependent line broadening”.

For TFNIEFRKAFLKILHC [reference compound], the “solubility” value ([3]; in water) was “insoluble in water”.
